# According to patent publication US20260242330A1, “USE OF AN AMANTADINE MONONITRATE COMPOUND IN MANUFACTURE OF A MEDICAMENT FOR THE PREVENTION AND TREATMENT OF HYPERTENSION” (GUANGZHOU MAGPIE PHARMACEUTICALS CO., LTD., priority 2022, published 2026):
# Key:
# [1] = Pharmacokinetic test of MN-08 in clinical trial, single oral dose; type: in vivo, human
# Description: In the clinical trial of amantadine mononitrate compound MN-08, the pharmacokinetic test included a total of 8 dose groups (6 mg, 12 mg, 42 mg, 60 mg, 78 mg, 96 mg, 114 mg, and 132 mg).
# The subjects received a single oral dose of MN-08 at doses of 6 mg, 12 mg, 42 mg, 60 mg, 78 mg, 96 mg, 114 mg, and 132 mg, respectively. […] Most existing antihypertensive drugs have a short half-life and require frequent administration, resulting in poor patient compliance. In contrast, the amantadine mononitrate compound MN-08 of the present invention has a half-life of more than 20 hours, a long drug action time, and can reduce the number of administration times and improve patient compliance compared to other existing hypertensive drugs.
# [2] = system: blood pressure of subjects; test: Effect of single administration of MN-08 on blood pressure of subjects (clinical trial); type: in vivo, human
# Source text: All subjects in the following embodiments have signed informed consent forms, which comply with medical ethics regulations. According to the relevant provisions of Chinese Guidelines for the Prevention and Treatment of Hypertension (2018 Revision), the values measured for hypertension are the average blood pressure measured three times on a different day without the use of antihypertensive drugs. Therefore, in this embodiment, the baseline blood pressure of the subjects before administration is set as the average blood pressure measured at three different times: screening period, occupancy period, and 1 hour before administration, as shown in Tables 1 to 3.
# In the clinical trial of amantadine mononitrate compound MN-08, it is investigated the effect of MN-08 on blood pressure in subjects. The experiments were carried out to analyze the blood pressure status of subjects in both the single dose and multiple dose groups.
# During a single administration, each dose group is required to fast for at least 10 hours before administration, without water deprivation overnight, and on the day of administration, the medication is taken on an empty stomach at around 8 a.m., with 240 mL of water administered.
structure (smiles),measurement,setting,value
CCC12CC3CC(N)(C1)CC(CO[N+](=O)[O-])(C3)C2 (stereo not shown) [MN-08],half-life,"[1]; human, in vivo, po, single oral administration, dose range 6 mg to 132 mg, t1/2 extends with increasing dosage",20 to 30 h
same,time at which peak concentration was reached,"[1]; single oral dose, 6 mg to 132 mg groups",2.5 to 6.5 h
same,diastolic pressure reduced by,"[2]; 6 mg single dose, at 6 hours",17.1%
same,systolic pressure reduced by,"[2]; 6 mg single dose, at 6 hours",13.2%
same,DP,"[2]; Subject 1, 12 mg single dose, 6 hrs after adm. (D 1), baseline 77 mmHg",64 mmHg
same,SP,"[2]; Subject 1, 12 mg single dose, 6 hrs after adm. (D 1), baseline 122 mmHg",104 mmHg
same,DP (reduce amplitude),"[2]; Subject 1, 12 mg single dose, 6 hrs after adm. (D 1), vs baseline 77 mmHg",−16.9%
same,SP (reduce amplitude),"[2]; Subject 1, 12 mg single dose, 6 hrs after adm. (D 1), vs baseline 122 mmHg",−14.8%
same,DP,"[2]; Subject 1, 12 mg single dose, 12 hrs after adm. (D 1), baseline 77 mmHg",60 mmHg
same,SP,"[2]; Subject 1, 12 mg single dose, 12 hrs after adm. (D 1), baseline 122 mmHg",109 mmHg
same,DP (reduce amplitude),"[2]; Subject 1, 12 mg single dose, 12 hrs after adm. (D 1), vs baseline 77 mmHg",−22.1%
same,SP (reduce amplitude),"[2]; Subject 1, 12 mg single dose, 12 hrs after adm. (D 1), vs baseline 122 mmHg",−10.7%
same,DP,"[2]; Subject 2, 42 mg single dose, 6 hrs after adm. (D 1), baseline 79 mmHg",63 mmHg
same,SP,"[2]; Subject 2, 42 mg single dose, 6 hrs after adm. (D 1), baseline 113 mmHg",96 mmHg
same,DP (reduce amplitude),"[2]; Subject 2, 42 mg single dose, 6 hrs after adm. (D 1), vs baseline 79 mmHg",−20.3%
same,SP (reduce amplitude),"[2]; Subject 2, 42 mg single dose, 6 hrs after adm. (D 1), vs baseline 113 mmHg",−15.0%
same,DP,"[2]; Subject 2, 42 mg single dose, 12 hrs after adm. (D 1), baseline 79 mmHg",69 mmHg
same,SP,"[2]; Subject 2, 42 mg single dose, 12 hrs after adm. (D 1), baseline 113 mmHg",96 mmHg
same,DP (reduce amplitude),"[2]; Subject 2, 42 mg single dose, 12 hrs after adm. (D 1), vs baseline 79 mmHg",−12.7%
same,SP (reduce amplitude),"[2]; Subject 2, 42 mg single dose, 12 hrs after adm. (D 1), vs baseline 113 mmHg",−15.0%
same,DP,"[2]; Subject 3, 42 mg single dose, 6 hrs after adm. (D 1), baseline 85 mmHg",72 mmHg
same,SP,"[2]; Subject 3, 42 mg single dose, 6 hrs after adm. (D 1), baseline 124 mmHg",118 mmHg
same,DP (reduce amplitude),"[2]; Subject 3, 42 mg single dose, 6 hrs after adm. (D 1), vs baseline 85 mmHg",−15.3%
same,SP (reduce amplitude),"[2]; Subject 3, 42 mg single dose, 6 hrs after adm. (D 1), vs baseline 124 mmHg",−4.8%
same,DP,"[2]; Subject 3, 42 mg single dose, 12 hrs after adm. (D 1), baseline 85 mmHg",61 mmHg
same,SP,"[2]; Subject 3, 42 mg single dose, 12 hrs after adm. (D 1), baseline 124 mmHg",98 mmHg
same,DP (reduce amplitude),"[2]; Subject 3, 42 mg single dose, 12 hrs after adm. (D 1), vs baseline 85 mmHg",−28.2%
same,SP (reduce amplitude),"[2]; Subject 3, 42 mg single dose, 12 hrs after adm. (D 1), vs baseline 124 mmHg",−21.0%
same,DP,"[2]; Subject 4, 60 mg single dose, 6 hrs after adm. (D 1), baseline 78 mmHg",58 mmHg
same,SP,"[2]; Subject 4, 60 mg single dose, 6 hrs after adm. (D 1), baseline 107 mmHg",93 mmHg
same,DP (reduce amplitude),"[2]; Subject 4, 60 mg single dose, 6 hrs after adm. (D 1), vs baseline 78 mmHg",−25.6%
same,SP (reduce amplitude),"[2]; Subject 4, 60 mg single dose, 6 hrs after adm. (D 1), vs baseline 107 mmHg",−13.1%
same,DP,"[2]; Subject 4, 60 mg single dose, 12 hrs after adm. (D 1), baseline 78 mmHg",58 mmHg
same,SP,"[2]; Subject 4, 60 mg single dose, 12 hrs after adm. (D 1), baseline 107 mmHg",90 mmHg
same,DP (reduce amplitude),"[2]; Subject 4, 60 mg single dose, 12 hrs after adm. (D 1), vs baseline 78 mmHg",−25.6%
same,SP (reduce amplitude),"[2]; Subject 4, 60 mg single dose, 12 hrs after adm. (D 1), vs baseline 107 mmHg",−15.9%
same,DP,"[2]; Subject 5, 60 mg single dose, 6 hrs after adm. (D 1), baseline 73 mmHg",62 mmHg
same,SP,"[2]; Subject 5, 60 mg single dose, 6 hrs after adm. (D 1), baseline 111 mmHg",93 mmHg
same,DP (reduce amplitude),"[2]; Subject 5, 60 mg single dose, 6 hrs after adm. (D 1), vs baseline 73 mmHg",−15.1%
same,SP (reduce amplitude),"[2]; Subject 5, 60 mg single dose, 6 hrs after adm. (D 1), vs baseline 111 mmHg",−16.2%
same,DP,"[2]; Subject 5, 60 mg single dose, 12 hrs after adm. (D 1), baseline 73 mmHg",61 mmHg
same,SP,"[2]; Subject 5, 60 mg single dose, 12 hrs after adm. (D 1), baseline 111 mmHg",95 mmHg
same,DP (reduce amplitude),"[2]; Subject 5, 60 mg single dose, 12 hrs after adm. (D 1), vs baseline 73 mmHg",−16.4%
same,SP (reduce amplitude),"[2]; Subject 5, 60 mg single dose, 12 hrs after adm. (D 1), vs baseline 111 mmHg",−14.4%
same,DP,"[2]; Subject 6, 78 mg single dose, 6 hrs after adm. (D 1), baseline 67 mmHg",61 mmHg
same,SP,"[2]; Subject 6, 78 mg single dose, 6 hrs after adm. (D 1), baseline 113 mmHg",103 mmHg
same,DP (reduce amplitude),"[2]; Subject 6, 78 mg single dose, 6 hrs after adm. (D 1), vs baseline 67 mmHg",−9.0%
same,SP (reduce amplitude),"[2]; Subject 6, 78 mg single dose, 6 hrs after adm. (D 1), vs baseline 113 mmHg",−8.8%
same,DP,"[2]; Subject 6, 78 mg single dose, 12 hrs after adm. (D 1), baseline 67 mmHg",54 mmHg
same,SP,"[2]; Subject 6, 78 mg single dose, 12 hrs after adm. (D 1), baseline 113 mmHg",104 mmHg
same,DP (reduce amplitude),"[2]; Subject 6, 78 mg single dose, 12 hrs after adm. (D 1), vs baseline 67 mmHg",−19.4%
same,SP (reduce amplitude),"[2]; Subject 6, 78 mg single dose, 12 hrs after adm. (D 1), vs baseline 113 mmHg",−8.0%
same,DP,"[2]; Subject 7, 78 mg single dose, 6 hrs after adm. (D 1), baseline 74 mmHg",62 mmHg
same,SP,"[2]; Subject 7, 78 mg single dose, 6 hrs after adm. (D 1), baseline 106 mmHg",94 mmHg
same,DP (reduce amplitude),"[2]; Subject 7, 78 mg single dose, 6 hrs after adm. (D 1), vs baseline 74 mmHg",−16.2%
